{"source": "paper PMC10854894", "about": "“A New Benzo[6,7]oxepino[3,2-b] Pyridine Derivative Induces Apoptosis in Canine Mammary Cancer Cell Lines” (Animals : an Open Access Journal from MDPI, 2024)", "assay_in_all_cases": "MTT cell proliferation/cytotoxicity assay", "type_in_all_cases": "cell-based, canine", "conditions_in_all_cases": "Canis lupus familiaris, read-out: Half-Maximal Inhibitory Concentration (IC50)", "key": {"[1]": {"tested_on": "REM134 cells", "experimental": "(§1) The cytotoxic effects of the three BZOP derivatives were studied via the 3-(4,5-Dimethyl-2-thiazolyl)-2,5-diphenyl-2H-tetrazolium bromide (MTT) assay. The REM134, CMGT071020, and MDCK cell lines were seeded at a density of 5 × 10^3 cells/well in 96-well plates and allowed to grow for 24 h. They were then treated with the three BZOP derivatives at various concentrations (0–300 µM) for 24 or 48 h, whereas cells treated with the culture medium containing 0.1% dimethyl sulfoxide (DMSO) were used as a negative control as the compounds were dissolved in DMSO. Subsequently, the cells were incubated with 10 µL of an MTT solution (Sigma, St. Louis, MO, USA) for 4 h. After the incubation with MTT solution, 100 µL of a solubilization solution was added to dissolve water-insoluble purple formazan crystals, and the plate was incubated overnight at 37 °C in 5% CO2. The absorbance of the formazan solution was measured using a Synergy H1 hybrid multi-mode microplate reader (BioTek, Winooski, VT, USA) at 570 nm. The experiment was conducted with four replicates, and the relative cell viability (%) of the treated cells was expressed as a percentage relative to the untreated control cells, which were considered to have 100% viability."}, "[2]": {"tested_on": "CMGT071020 cells", "experimental": "as §1"}, "[3]": {"tested_on": "MDCK cells", "experimental": "as §1"}}, "note": "Read-outs that look alike come from different tables or passages of the source."}
{"smiles": "[O-][n+]1cccc2c1C=Cc1cccnc1O2", "note": "[OPDOb, oxepino(2,3-b:6,7-b’)dipyridine 1-oxide]", "values": [{"measurement": "IC50", "setting": "[1]; REM134, 24 h", "value": "> 300", "unit": "µM"}, {"measurement": "IC50", "setting": "[1]; REM134, 48 h", "value": 172, "unit": "µM"}, {"measurement": "IC50", "setting": "[2]; CMGT071020, 24 h", "value": "> 300", "unit": "µM"}, {"measurement": "IC50", "setting": "[2]; CMGT071020, 48 h", "value": "> 300", "unit": "µM"}, {"measurement": "IC50", "setting": "[3]; 24 h", "value": "> 300", "unit": "µM"}, {"measurement": "IC50", "setting": "[3]; 48 h", "value": "> 300", "unit": "µM"}]}
{"smiles": "[O-][n+]1cccc2c1C=Cc1ccncc1O2", "note": "[OPDOc, oxepino(3,2-b:7,6-c’)dipyridine 1-oxide]", "values": [{"measurement": "IC50", "setting": "[1]; REM134, 24 h", "value": "> 300", "unit": "µM"}, {"measurement": "IC50", "setting": "[1]; REM134, 48 h", "value": "> 300", "unit": "µM"}, {"measurement": "IC50", "setting": "[2]; CMGT071020, 24 h", "value": "> 300", "unit": "µM"}, {"measurement": "IC50", "setting": "[2]; CMGT071020, 48 h", "value": "> 300", "unit": "µM"}, {"measurement": "IC50", "setting": "[3]; 24 h", "value": "> 300", "unit": "µM"}, {"measurement": "IC50", "setting": "[3]; 48 h", "value": "> 300", "unit": "µM"}]}
